Earlier results as cited in patent publication US20060210485A1, “Pharmaceutical formulations” (priority 2003, published 2006).
Counter-ions that a name gives are not always drawn.

Settings: solid tablets with a lactose excipient; adducts postulated via the Maillard reaction

CNCCC(Oc1ccc(C(F)(F)F)cc1)c1ccccc1 (stereo not shown) [fluoxetine hydrochloride]
chemical stability in presence of lactose: undergoes degradation
